Converted amounts (≈) assume the structure as drawn. Like-named read-outs stand apart in the source and are kept apart here.
Assays:
Assay in all cases: Broth dilution MIC
Assay type in all cases: cell-based
CNS GC 4537 = details: read-out: Antimicrobial Activity (MIC)
Procedure, shortened: (§1)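 Standard broth dilution: make serial dilutions of compound in Mueller-Hinton broth, add bacterial suspension, incubate 18 hours at 35° C., then record the lowest concentration inhibiting growth.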

CNS GC 4538 = details: read-out: Antimicrobial Activity (MIC)
Procedure, shortened: as §1

CNS GC 4547 = details: read-out: Antimicrobial Activity (MIC)
Procedure, shortened: as §1

E. cloacae GC 3783 = details: Enterobacter cloacae, read-out: Antimicrobial Activity (MIC)
Procedure, shortened: as §1

E. coli GC 2203 = details: Escherichia coli, read-out: Antimicrobial Activity (MIC)
Procedure, shortened: as §1

E. coli GC 3226 = details: Escherichia coli, read-out: Antimicrobial Activity (MIC)
Procedure, shortened: as §1

E. coli GC 4559 = details: Escherichia coli, read-out: Antimicrobial Activity (MIC)
Procedure, shortened: as §1

E. coli GC 4560 = details: Escherichia coli, read-out: Antimicrobial Activity (MIC)
Procedure, shortened: as §1

E. faecalis GC 2242 = details: Enterococcus faecalis, read-out: Antimicrobial Activity (MIC)
Procedure, shortened: as §1

E. faecalis GC 4555 = details: Enterococcus faecalis, read-out: Antimicrobial Activity (MIC)
Procedure, shortened: as §1

E. faecalis GC 842 = details: Enterococcus faecalis, read-out: Antimicrobial Activity (MIC)
Procedure, shortened: as §1

K. pneumoniae GC 4534 = details: Klebsiella pneumoniae, read-out: Antimicrobial Activity (MIC)
Procedure, shortened: as §1

M. morganii GC 4531 = details: Morganella morganii, read-out: Antimicrobial Activity (MIC)
Procedure, shortened: as §1

P. aeruginosa GC 2214 = details: Pseudomonas aeruginosa, read-out: Antimicrobial Activity (MIC)
Procedure, shortened: as §1

P. aeruginosa GC 4532 = details: Pseudomonas aeruginosa, read-out: Antimicrobial Activity (MIC)
Procedure, shortened: as §1

P. rettgeri GC 4530 = details: Providencia rettgeri, read-out: Antimicrobial Activity (MIC)
Procedure, shortened: as §1

S. aureus GC 1131 = details: Staphylococcus aureus, read-out: Antimicrobial Activity (MIC)
Procedure, shortened: as §1

S. aureus GC 2216 = details: Staphylococcus aureus, read-out: Antimicrobial Activity (MIC)
Procedure, shortened: as §1

S. aureus GC 4536 = details: Staphylococcus aureus, read-out: Antimicrobial Activity (MIC)
Procedure, shortened: as §1

S. marcescens GC 4077 = details: Serratia marcescens, read-out: Antimicrobial Activity (MIC)
Procedure, shortened: as §1

[1] = CNS GC 4537, Mueller-Hinton broth, 18 hours at 35° C.
[2] = CNS GC 4538, Mueller-Hinton broth, 18 hours at 35° C.
[3] = CNS GC 4547, Mueller-Hinton broth, 18 hours at 35° C.
[4] = GC3783, E. cloacae GC 3783, Mueller-Hinton broth, 18 hours at 35° C.
[5] = GC2203, E. coli GC 2203, Mueller-Hinton broth, 18 hours at 35° C.
[6] = GC3226, E. coli GC 3226, Mueller-Hinton broth, 18 hours at 35° C.
[7] = GC4559, E. coli GC 4559, Mueller-Hinton broth, 18 hours at 35° C.
[8] = GC4560, E. coli GC 4560, Mueller-Hinton broth, 18 hours at 35° C.
[9] = GC2242, E. faecalis GC 2242, Mueller-Hinton broth, 18 hours at 35° C.
[10] = GC4555, E. faecalis GC 4555, Mueller-Hinton broth, 18 hours at 35° C.
[11] = GC842, E. faecalis GC 842, Mueller-Hinton broth, 18 hours at 35° C.
[12] = GC4534, K. pneumoniae GC 4534, Mueller-Hinton broth, 18 hours at 35° C.
[13] = GC4531, M. morganii GC 4531, Mueller-Hinton broth, 18 hours at 35° C.
[14] = GC2214, P. aeruginosa GC 2214, Mueller-Hinton broth, 18 hours at 35° C.
[15] = GC4532, P. aeruginosa GC 4532, Mueller-Hinton broth, 18 hours at 35° C.
[16] = GC4530, P. rettgeri GC 4530, Mueller-Hinton broth, 18 hours at 35° C.
[17] = GC1131, S. aureus GC 1131, Mueller-Hinton broth, 18 hours at 35° C.
[18] = GC2216, S. aureus GC 2216, Mueller-Hinton broth, 18 hours at 35° C.
[19] = GC4536, S. aureus GC 4536, Mueller-Hinton broth, 18 hours at 35° C.
[20] = GC4077, S. marcescens GC 4077, Mueller-Hinton broth, 18 hours at 35° C.

MIC (CNS GC 4537; [1]) [µg/mL] | MIC (CNS GC 4538; [2]) [µg/mL] | MIC (CNS GC 4547; [3]) [µg/mL] | MIC (E. cloacae GC 3783; [4]) [µg/mL] | MIC (E. coli GC 2203; [5]) [µg/mL] | MIC (E. coli GC 3226; [6]) [µg/mL] | MIC (E. coli GC 4559; [7]) [µg/mL] | MIC (E. faecalis GC 2242; [9]) [µg/mL] | MIC (E. faecalis GC 4555; [10]) [µg/mL] | MIC (E. faecalis GC 842; [11]) [µg/mL] | MIC (K. pneumoniae GC 4534; [12]) [µg/mL] | MIC (M. morganii GC 4531; [13]) [µg/mL] | MIC (P. aeruginosa GC 2214; [14]) [µg/mL] | MIC (P. aeruginosa GC 4532; [15]) [µg/mL] | MIC (P. rettgeri GC 4530; [16]) [µg/mL] | MIC (S. aureus GC 1131; [17]) [µg/mL] | MIC (S. aureus GC 2216; [18]) [µg/mL] | MIC (S. aureus GC 4536; [19]) [µg/mL] | MIC (S. marcescens GC 4077; [20]) [µg/mL] | Structure (SMILES) | MIC (E. coli GC 4560; GC4560, 18 h) [µg/mL] | also measured
– | – | – | – | – | – | – | – | – | – | – | – | – | – | – | – | – | – | – | COc1ccc(NC(=O)NC[C@H]2OC(O[C@H](C3C(=O)N(c4ccc(OC)cc4)C(=O)N3CCCNC(=O)C(NC(=O)C(NC(=O)NC(C(=O)O)C(C)C)C3CCNC(=N)N3)C(O)C(C)C)[C@H]3O[C@@H](n4ccc(=O)[nH]c4=O)C(O)C3O)C(OC)C2O)cc1 (stereo partly drawn) [Example 13, 14-[5-((R)-{(2S,5R)-5-[2,4-Dioxo-3,4-dihydro-1 (2H)-pyrimidinyl]-3,4-dihydroxytetrahydro-2-furanyl}{[(5R)-4-hydroxy-3-methoxy-5-({[(4-methoxyanilino)carbonyl]amino}methyl)tetrahydro-2-furanyl]oxy}methyl)-3-(4-methoxyphenyl)-2,4-dioxo-1-imidazolidinyl]-9-(1-hydroxy-2-methylpropyl)-6-(2-iminohexahydro-4-pyrimidinyl)-2-isopropyl-4,7,10-trioxo-3,5,8,11-tetraazatetradecan-1-oic Acid] | > 32 | MIC (CNS GC 4537; 18 h): > 32 µg/mL; MIC (CNS GC 4538; 18 h): > 32 µg/mL; MIC (CNS GC 4547; 18 h): > 32 µg/mL; MIC (E. cloacae GC 3783; GC3783, 18 h): > 32 µg/mL; MIC (E. coli GC 2203; GC2203, 18 h): > 32 µg/mL; MIC (E. coli GC 3226; GC3226, 18 h): > 32 µg/mL; MIC (E. coli GC 4559; GC4559, 18 h): > 32 µg/mL; MIC (E. faecalis GC 2242; GC2242, 18 h): > 32 µg/mL; MIC (E. faecalis GC 4555; GC4555, 18 h): > 32 µg/mL; MIC (E. faecalis GC 842; GC842, 18 h): > 32 µg/mL; MIC (K. pneumoniae GC 4534; GC4534, 18 h): > 32 µg/mL; MIC (M. morganii GC 4531; GC4531, 18 h): > 32 µg/mL; MIC (P. aeruginosa GC 2214; GC2214, 18 h): > 32 µg/mL; MIC (P. aeruginosa GC 4532; GC4532, 18 h): > 32 µg/mL; MIC (P. rettgeri GC 4530; GC4530, 18 h): > 32 µg/mL; MIC (S. aureus GC 1131; GC1131, 18 h): > 32 µg/mL; MIC (S. aureus GC 2216; GC2216, 18 h): > 32 µg/mL; MIC (S. aureus GC 4536; GC4536, 18 h): > 32 µg/mL; MIC (S. marcescens GC 4077; GC4077, 18 h): > 32 µg/mL
32 (≈ 27.1 µM) | 32 (≈ 27.1 µM) | 16 (≈ 13.5 µM) | > 32 | > 32 | > 32 | > 32 | 32 (≈ 27.1 µM) | > 32 | > 32 | > 32 | > 32 | > 32 | > 32 | > 32 | 32 (≈ 27.1 µM) | 32 (≈ 27.1 µM) | 32 (≈ 27.1 µM) | > 32 | CCCCCCNC(=O)NC[C@H]1OC(O[C@H](C2C(=O)N(CCCCCC)C(=O)N2CCCNC(=O)C(NC(=O)C(NC(=O)NC(C(=O)O)C(C)C)C2CCNC(=N)N2)C(O)C(C)C)[C@H]2O[C@@H](n3ccc(=O)[nH]c3=O)[C@H](O)[C@@H]2O)[C@H](OC)[C@H]1O (stereo partly drawn) [Example 14, 14-[5-((R)-{(2S,3S,4R,5R)-5-[2,4-Dioxo-3,4-dihydro-1 (2H)-pyrimidinyl]-3,4-dihydroxytetrahydro-2-furanyl}{[(3R,4S,5R)-5-({[(hexylamino)carbonyl]amino}methyl)-4-hydroxy-3-methoxytetrahydro-2-furanyl]oxy}methyl)-3-hexyl-2,4-dioxo-1-imidazolidinyl]-9-(1-hydroxy-2-methylpropyl)-6-(2-iminohexahydro-4-pyrimidinyl)-2-isopropyl-4,7,10-trioxo-3,5,8,11-tetraazatetradecan-1-oic Acid] | – | MIC (E. coli GC 4560; [8]): 32 µg/mL (≈ 27.1 µM)
> 32 | > 32 | > 32 | > 32 | > 32 | > 32 | > 32 | > 32 | > 32 | > 32 | > 32 | > 32 | > 32 | > 32 | > 32 | > 32 | > 32 | > 32 | > 32 | CCCCCCCCCCCCNC(=O)NC[C@H]1OC(O[C@H](C2C(=O)N(CCCCCCCCCCCC)C(=O)N2CCCNC(=O)C(NC(=O)C(NC(=O)NC(C(=O)O)C(C)C)C2CCNC(=N)N2)C(O)C(C)C)[C@H]2O[C@@H](n3ccc(=O)[nH]c3=O)[C@H](O)[C@@H]2O)[C@H](OC)[C@H]1O (stereo partly drawn) [Example 15, 14-[5-((R)-{(2S,3S,4R,5R)-5-[2,4-Dioxo-3,4-dihydro-1 (2H)-pyrimidinyl]-3,4-dihydroxytetrahydro-2-furanyl}{[(3R,4S,5R)-5-({[(dodecylamino)carbonyl]amino}methyl)-4-hydroxy-3-methoxytetrahydro-2-furanyl]oxy}methyl)-3-dodecyl-2,4-dioxo-1-imidazolidinyl]-9-(1-hydroxy-2-methylpropyl)-6-(2-iminohexahydro-4-pyrimidinyl)-2-isopropyl-4,7,10-trioxo-3,5,8,11-tetraazatetradecan-1-oic Acid] | – | MIC (E. coli GC 4560; [8]): > 32 µg/mL

Structure (SMILES) | MIC (CNS GC 4537; [1]) [µg/mL] | MIC (CNS GC 4538; [2]) [µg/mL] | MIC (CNS GC 4547; [3]) [µg/mL] | MIC (E. cloacae GC 3783; [4]) [µg/mL] | MIC (E. coli GC 2203; [5]) [µg/mL] | MIC (E. coli GC 3226; [6]) [µg/mL] | MIC (E. coli GC 4559; [7]) [µg/mL] | MIC (E. faecalis GC 2242; [9]) [µg/mL] | MIC (E. faecalis GC 4555; [10]) [µg/mL] | MIC (E. faecalis GC 842; [11]) [µg/mL] | MIC (K. pneumoniae GC 4534; [12]) [µg/mL] | MIC (M. morganii GC 4531; [13]) [µg/mL] | MIC (P. aeruginosa GC 2214; [14]) [µg/mL] | MIC (P. aeruginosa GC 4532; [15]) [µg/mL] | MIC (P. rettgeri GC 4530; [16]) [µg/mL] | MIC (S. aureus GC 1131; [17]) [µg/mL] | MIC (S. aureus GC 2216; [18]) [µg/mL] | MIC (S. aureus GC 4536; [19]) [µg/mL] | MIC (S. marcescens GC 4077; [20]) [µg/mL] | MIC (E. coli GC 4560; GC4560, 18 h) [µg/mL] | also measured
CCCCCCCCCCCCCCCCNC(=O)NC[C@H]1OC(O[C@H](C(NCCCNC(=O)C(NC(=O)C(NC(=O)NC(C(=O)O)C(C)C)C2CCNC(=N)N2)C(O)C(C)C)C(=O)O)[C@H]2O[C@@H](n3ccc(=O)[nH]c3=O)[C@H](O)[C@@H]2O)[C@H](OC)[C@H]1O (stereo partly drawn) [Example 16, 16-((R)-{(2S,3S,4R,5R)-5-[2,4-Dioxo-3,4-dihydro-1 (2H)-pyrimidinyl]-3,4-dihydroxytetrahydro-2-furanyl}{[(3R,4S,5R)-5-({[(hexadecylamino)carbonyl]amino}methyl)-4-hydroxy-3-methoxytetrahydro-2-furanyl]oxy}methyl)-9-(1-hydroxy-2-methylpropyl)-6-(2-iminohexahydro-4-pyrimidinyl)-2-isopropyl-4,7,10-trioxo-3,5,8,11,15-pentaazaheptadecane-1,17-dioic Acid] | > 32 | > 32 | > 32 | > 32 | > 32 | > 32 | > 32 | > 32 | > 32 | > 32 | > 32 | > 32 | > 32 | > 32 | > 32 | > 32 | > 32 | > 32 | > 32 | > 32 | –
